Assay results from ChEMBL document CHEMBL5518220, “The Discovery of 7-Isopropoxy-2-(1-methyl-2-oxabicyclo[2.1.1]hexan-4-yl)-N-(6-methylpyrazolo[1,5-a]pyrimidin-3-yl)imidazo[1,2-a]pyrimidine-6-carboxamide (BIO-7488), a Potent, Selective, and CNS-Penetrant IRAK4 Inhibitor for the Treatment of Ischemic Stroke” (J Med Chem, 2024).
Active and inactive are the calls of the source. No cut-off for these calls is given here.

Legend:
[1] = Metabolic stability in human liver microsomes assessed as intrinsic clearance; format: ADME, Microsome; settings: read-out: CLH
[2] = Metabolic stability in rat liver microsomes assessed as intrinsic clearance; format: ADME, Microsome; settings: read-out: CLH
MDR1 (P-gp) = assay: Efflux ratio of apparent permeability across basolateral to apical side over apical to basolateral side in MDCK-MDR1 cells at 1 uM incubated for 120 mins by LC-MS/MS analysis; format: ADME, cell-based, Canis lupus familiaris; settings: dog
[3] = Clearance in rat at 1 mg/kg, iv by LC-MS/MS analysis; format: ADME, organism-based; settings: in vivo
[4] = Unbound clearance in rat at 1 mg/kg, iv by LC-MS/MS analysis; format: ADME, organism-based; settings: in vivo
[5] = Unbound brain-to-plasma concentration ratio in iv dosed rat measured at 4 to 24 hrs by LC-MS/MS analysis; format: ADME, organism-based; settings: brain and plasma, time 4-24 hrs, read-out: K(p,uu,brain)
[6] = target: T1, Voltage-gated inwardly rectifying potassium channel KCNH2 (Homo sapiens, UniProt Q12809); assay: Displacement of [35S]-MK499 from hERG by […]; format: toxicity
[7] = Lipophilicity, logD of compound in n-octanol and aqueous buffer at pH 7.4 by RP-HPLC method; format: physicochemical
[8] = target: T2, Interleukin-1 receptor-associated kinase 4 (Homo sapiens, UniProt Q9NWZ3)
T2 sequence (Q9NWZ3 whole entry): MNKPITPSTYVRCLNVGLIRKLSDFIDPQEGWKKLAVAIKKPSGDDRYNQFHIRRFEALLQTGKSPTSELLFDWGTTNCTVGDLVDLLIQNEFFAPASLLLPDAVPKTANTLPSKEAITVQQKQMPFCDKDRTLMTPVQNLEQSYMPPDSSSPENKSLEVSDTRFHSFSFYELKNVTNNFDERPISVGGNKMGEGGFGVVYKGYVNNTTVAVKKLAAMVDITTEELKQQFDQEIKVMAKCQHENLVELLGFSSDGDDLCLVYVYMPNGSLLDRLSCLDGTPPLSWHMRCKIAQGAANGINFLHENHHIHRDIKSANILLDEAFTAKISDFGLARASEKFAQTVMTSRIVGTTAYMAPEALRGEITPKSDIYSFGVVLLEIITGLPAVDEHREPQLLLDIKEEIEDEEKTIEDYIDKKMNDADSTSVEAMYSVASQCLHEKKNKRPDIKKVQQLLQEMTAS

[9] = target: T1, Voltage-gated inwardly rectifying potassium channel KCNH2; assay: Inhibition of hERG by patch clamp method; format: toxicity
[10] = Metabolic stability in human hepatocytes assessed as intrinsic clearance; format: ADME, cell-based, Hepatocyte; settings: read-out: CLH
[11] = Metabolic stability in rat hepatocytes assessed as intrinsic clearance; format: ADME, cell-based, Hepatocyte; settings: read-out: CLH
Mus musculus [12] = assay: Inhibition of LPS-induced IL-1beta production in po dosed female C57BL/6 mouse assessed as reduction in IL-1beta level in plasma administered via oral gavage for 60 mins followed by LPS stimulation at 0.5 mg/kg, ip measured after 90 mins by ELISA; format: functional, organism-based
Mus musculus [13] = assay: Inhibition of LPS-induced TNF-alpha production in po dosed female C57BL/6 mouse assessed as reduction in TNF-alpha level in plasma administered via oral gavage for 60 mins followed by LPS stimulation at 0.5 mg/kg, ip measured after 90 mins by ELISA; format: functional, organism-based
Mus musculus [14] = assay: Inhibition of LPS-induced IL-6 production in po dosed female C57BL/6 mouse assessed as reduction in IL-6 level in plasma administered via oral gavage for 60 mins followed by LPS stimulation at 0.5 mg/kg, ip measured after 90 mins by ELISA; format: functional, organism-based
Mus musculus [15] = assay: Inhibition of LPS-induced IL-1beta production in po dosed female C57BL/6 mouse assessed as reduction in IL-1beta level in brain administered via oral gavage for 60 mins followed by LPS stimulation at 0.6 ug, icv measured after 120 mins by ELISA; format: functional, organism-based; settings: dose 10-30 mg/kg, time 180.0 min
Mus musculus [16] = assay: Inhibition of LPS-induced TNF-alpha production in po dosed female C57BL/6 mouse assessed as reduction in TNF-alpha level in brain administered via oral gavage for 60 mins followed by LPS stimulation at 0.6 ug, icv measured after 120 mins by ELISA; format: functional, organism-based; settings: dose 10-30 mg/kg, time 180.0 min
Mus musculus [17] = assay: Inhibition of LPS-induced IL-6 production in po dosed female C57BL/6 mouse assessed as reduction in IL-6 level in brain administered via oral gavage for 60 mins followed by LPS stimulation at 0.6 ug, icv measured after 120 mins by ELISA; format: functional, organism-based; settings: dose 10-30 mg/kg, time 180.0 min
[18] = Inhibition of […] induced IL-1beta production in human whole blood preincubated for 1 hr followed by R848 stimulation and measured after 4 hrs by MSD assay; format: functional, tissue-based
Mus musculus [19] = assay: Inhibition of IL-1beta production in male C57BL/6 mouse model of distal hypoxic-middle cerebral artery occlusion stroke assessed as reduction in IL-1beta level in brain at 10 to 30 mg/kg, po qd administered via oral gavage for 3 to 7 days starting from 1 hr 15 mins post cauterization by ELISA; format: functional, organism-based; settings: dose 10-30 mg/kg, time 3-7 day
Mus musculus [20] = assay: Inhibition of IL-6 production in male C57BL/6 mouse model of distal hypoxic-middle cerebral artery occlusion stroke assessed as reduction in IL-6 level in brain at 10 to 30 mg/kg, po qd administered via oral gavage for 3 to 7 days starting from 1 hr 15 mins post cauterization by ELISA; format: functional, organism-based; settings: dose 10-30 mg/kg, time 3-7 day
Mus musculus [21] = assay: Inhibition of IL-6 production in male C57BL/6 mouse model of distal hypoxic-middle cerebral artery occlusion stroke assessed as reduction in IL-6 level in CNS at 10 to 30 mg/kg, po qd administered via oral gavage for 3 days starting from 1 hr 15 mins post cauterization by ELISA; format: functional, organism-based; settings: dose 10-30 mg/kg, time 3.0 day
Mus musculus [22] = assay: Inhibition of TNF-alpha production in male C57BL/6 mouse model of distal hypoxic-middle cerebral artery occlusion stroke assessed as reduction in TNF-alpha level in brain at 10 to 30 mg/kg, po qd administered via oral gavage for 3 days starting from 1 hr 15 mins post cauterization by ELISA; format: functional, organism-based; settings: dose 10-30 mg/kg, time 3.0 day
Mus musculus [23] = assay: Inhibition of TNF-alpha production in male C57BL/6 mouse model of distal hypoxic-middle cerebral artery occlusion stroke assessed as reduction in TNF-alpha level in CNS at 10 to 30 mg/kg, po qd administered via oral gavage for 3 to 7 days starting from 1 hr 15 mins post cauterization by ELISA; format: functional, organism-based; settings: dose 10-30 mg/kg, time 3-7 day
[24] = Free drug level in male C57BL/6 mouse brain at 30 mg/kg, po qd measured on 3 to 7 days; format: ADME, organism-based; settings: in vivo, time 3-7 day

T1 sequence (Q12809 whole entry): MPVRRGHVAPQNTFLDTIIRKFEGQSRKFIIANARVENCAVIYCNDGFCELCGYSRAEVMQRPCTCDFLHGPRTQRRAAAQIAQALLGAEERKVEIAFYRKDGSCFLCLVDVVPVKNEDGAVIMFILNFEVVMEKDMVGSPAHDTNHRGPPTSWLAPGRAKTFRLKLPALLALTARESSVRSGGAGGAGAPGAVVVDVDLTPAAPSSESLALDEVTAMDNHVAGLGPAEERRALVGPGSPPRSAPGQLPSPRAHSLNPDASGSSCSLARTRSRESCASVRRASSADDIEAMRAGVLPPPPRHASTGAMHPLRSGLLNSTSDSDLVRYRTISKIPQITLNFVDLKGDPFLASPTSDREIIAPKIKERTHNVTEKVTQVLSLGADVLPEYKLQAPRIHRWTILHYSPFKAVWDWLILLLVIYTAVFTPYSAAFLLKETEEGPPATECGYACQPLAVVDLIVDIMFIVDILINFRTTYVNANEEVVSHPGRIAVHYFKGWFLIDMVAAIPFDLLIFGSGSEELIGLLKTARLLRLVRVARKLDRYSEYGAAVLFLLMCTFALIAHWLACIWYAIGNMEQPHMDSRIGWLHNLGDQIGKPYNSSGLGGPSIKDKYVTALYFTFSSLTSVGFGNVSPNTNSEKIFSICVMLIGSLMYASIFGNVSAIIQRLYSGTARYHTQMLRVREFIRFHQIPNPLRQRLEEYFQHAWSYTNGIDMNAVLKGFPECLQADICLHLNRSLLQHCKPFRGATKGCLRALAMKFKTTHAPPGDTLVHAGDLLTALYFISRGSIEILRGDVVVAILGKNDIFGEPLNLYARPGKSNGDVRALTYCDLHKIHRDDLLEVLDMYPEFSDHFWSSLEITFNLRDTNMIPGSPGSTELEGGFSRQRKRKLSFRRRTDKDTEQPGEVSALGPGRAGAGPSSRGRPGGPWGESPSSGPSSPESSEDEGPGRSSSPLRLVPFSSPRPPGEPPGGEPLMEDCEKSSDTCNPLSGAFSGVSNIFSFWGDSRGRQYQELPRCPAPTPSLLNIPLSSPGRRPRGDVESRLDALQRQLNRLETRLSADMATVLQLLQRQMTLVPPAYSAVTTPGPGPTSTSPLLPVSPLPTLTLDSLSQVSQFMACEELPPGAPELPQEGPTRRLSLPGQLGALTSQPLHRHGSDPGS

Row | Structure (SMILES) | CLint scaled [1] [mL/min/kg] | CLint scaled [2] [mL/min/kg] | efflux ratio at 2 h, 1 µM (MDR1 (P-gp)) | clearance [3] [mL/min/kg] | CL free [4] [mL/min/kg] | Kp uu [5] | IC50 [8] [nM] | CLint scaled [10] [mL/min/kg] | CLint scaled [11] [mL/min/kg] | also measured
1 | CCOc1cc2nc(CCOC)cn2cc1NC(=O)c1cccc(C(F)F)n1 | 32 | 240 | 0.5 |  |  |  |  |  |  | 
2 | CCOc1cc2nc(C3CC3)cn2cc1NC(=O)c1cccc(C(F)F)n1 | 20 | 145 | 0.4 |  |  |  |  |  |  | 
3 | Cc1cnc2c(NC(=O)c3cn4cc(C56COC(C)(C5)C6)nc4c(F)c3OC(C)C)cnn2c1 |  |  |  | 2.6 | 28 | 0.7 |  |  |  | IC50 [6]: > 60 µM; logD [7]: 2.5
4 | CCOc1cc2nc(C(C)(C)O)cn2cc1NC(=O)c1cccc(C(F)F)n1 | < 4.7 | < 10.7 | 5.5 |  |  |  |  |  |  | 
5 | CCOc1cc2nc(CCCOC)cn2cc1NC(=O)c1cccc(C(F)F)n1 | 55 | 266 | 1.1 |  |  |  | 1.4 |  |  | 
6 | CC(C)Oc1nc2nc(C34COC(C)(C3)C4)cn2cc1C(=O)Nc1cnn2cc(F)cnc12 |  |  |  | 7.2 | 67 | 0.2 |  |  |  | IC50 [9]: 18 µM; logD [7]: 2.4
7 | Cc1cc(NC(=O)c2cccc(C(F)F)n2)cn2cc(C3CCOCC3)nc12 | 11 | 26 |  | 20 | 227 | 0.7 | 130 | 16 | 12 | 
8 | CC(C)Oc1nc2nc(C34COC(C)(C3)C4)cn2cc1C(=O)Nc1cnn2ccncc12 |  |  |  |  |  |  | 16.3 |  |  | 
9 | CC(C)Oc1cc2nc(C3CCOCC3)cn2cc1NC(=O)c1cccc(C(F)F)n1 | 30 | 61 |  | 22 | 1788 | 0.4 | 0.2 | 75 | 37 | 
10 | Cc1cc2nc(C3CCOCC3)cn2cc1NC(=O)c1cccc(C(F)F)n1 | < 5 | 20 |  | 16 | 149 | 1 | 150 | 18 | 36 | 
11 | CC(C)Oc1cc2nc(C34COC(C)(C3)C4)cn2cc1C(=O)Nc1cccc(C(F)F)n1 | < 5 | 11 |  | 15 | 563 | 0.4 | 0.17 | 5.3 | < 3 | IC50 [9]: 2.2 µM; inhibition (Mus musculus [12]): Dose-Dependent Effect; inhibition (Mus musculus [13]): Dose-Dependent Effect; inhibition (Mus musculus [14]): Dose-Dependent Effect; inhibition (Mus musculus [15]): Dose-Dependent Effect; inhibition (Mus musculus [16]): Dose-Dependent Effect; inhibition (Mus musculus [17]): Dose-Dependent Effect; IC50 ([18]; Homo sapiens, Blood): 306 nM; fIC50 ([18]; time 5 hrs): 6 nM; inhibition (Mus musculus [19]): Active; inhibition (Mus musculus [20]): Active; inhibition (Mus musculus [21]): inactive; inhibition (Mus musculus [22]): inactive; inhibition (Mus musculus [23]): inactive; Drug uptake(free) [24]: 100 nM; logD [7]: 4.4
12 | COc1cc(NC(=O)c2cccc(C(F)(F)F)n2)cn2cc(C3CCOCC3)nc12 | < 5 | 20 |  | 10 | 45 | 0.2 |  | 8 | < 3 | 
13 | CC(C)Oc1cc2nc(C3CCOCC3)cn2cc1C(=O)Nc1cccc(C(F)F)n1 | 21 | 81 |  |  |  |  | 0.25 | 28 | 29 | 
14 | CC(C)Oc1cc2nc(C34COC(C)(C3)C4)cn2cc1C(=O)Nc1cnn2cccnc12 |  |  |  | 11 | 143 | 0.1 |  |  |  | IC50 [9]: > 30 µM; logD [7]: 2.1
15 | CCOc1cc2nc(C34COC(C)(C3)C4)cn2cc1NC(=O)c1cccc(C(F)F)n1 | 5.4 | < 11 | 1.4 | 37 | 1388 | 0.4 | 0.2 | 19 | 11 | IC50 [9]: 0.78 µM
16 | CC(C)Oc1nc2nc(C34COC(C)(C3)C4)cn2cc1C(=O)Nc1cnn2cccnc12 |  |  |  | 10 | 64 | 0.2 | 0.4 |  |  | IC50 [9]: 19.7 µM; logD [7]: 2.1
17 | CCOc1cc2nc(C3CCOCC3)cn2cc1NC(=O)c1cccc(C(F)F)n1 | 27 | 40 | 2 | 57 | 1738 | 0.3 | 0.6 | 45 | 63 | 
18 | CCOc1cc2nc(C3(OC)CC3)cn2cc1NC(=O)c1cccc(C(F)F)n1 | 68 | 198 | 0.7 |  |  |  |  |  |  | 
